Experimental data taken from patent publication US12201632B2, “Levoketoconazole for treatment of congenital adrenal hyperplasia and primary aldosteronism” (Strongbridge Dublin Limited, priority 2018, dated 2025).
Like-named read-outs stand apart in the source and are kept apart here.

Tests used:
[1] = tested on: ACTH independent hyperplasia cultures; test: Cortisol production in primary ACTH independent hyperplasia cultures; type: cell-based, human; conditions: 3 days
Description: (§1) To obtain primary cultures, adrenal specimens (adrenocortical adenomas, adrenal hyperplasias and adrenocortical carcinomas) were collected after adrenalectomy at the department of Surgery, Erasmus University Medical Center, Rotterdam, the Netherlands, between April 2016 and May 2018. The study was conducted under guidelines that have been approved by the Medical Ethics Committee of the Erasmus Medical Center and informed consent was obtained from all patients. Immediately after surgery, specimens were minced into small pieces of 2-3 mm^3, washed in culture medium and centrifuged for 5 minutes at 600 g. The tissue was stored overnight in culture medium at 4° C., where after the tissue was centrifuged again and the supernatant was removed. Fragments were dissociated using 10-25 ml collagenase type 1 (2 mg/ml: Sigma-Aldrich), followed by incubation at 37° C. for up to two hours. Ficoll (GE healthcare) density gradient separation was used once or twice as required in order to separate contaminating red blood cells from the tumor cells. Cell viability and cell amount were counted by trypan blue exclusion. Dissociated cells were plated at a density of 10^5 cells per well. […]
Cortisol concentrations were measured in the supernatant using a chemiluminescence immunoassay system (Immulite 2000XPi; Siemens DPC Inc., Los Angeles, Calif., USA). In addition, we carried out multi-steroid analysis by liquid chromatography/mass spectrometry (LC/MS-MS) to accurately quantify androstenedione, corticosterone, cortisol, 11-deoxycortisol, DHEA, DHEAS, progesterone, 17-hydroxyprogesterone, and testosterone. […] Steroids were quantified with respect to a calibration series, with internal standards. Steroids were quantified on a Xevo TQS LC-MS/MS (Waters Chromatography).
Statistical analysis was performed using Graphpad Prism 6.0 (Graphpad Software, San Diego, CA). […] Effects of both compounds on the steroid profile were measured as absolute change compared to control and compared using the Student's t-test. […]

[2] = tested on: primary human adrenocortical carcinoma cultures; test: Cortisol production in primary adrenocortical carcinoma cultures; type: cell-based; conditions: Homo sapiens, 72 h, 3 days, read-out: IC50 inhibition of cortisol production
Description: (§2) To obtain primary cultures, adrenal specimens (adrenocortical adenomas, adrenal hyperplasias and adrenocortical carcinomas) were collected after adrenalectomy at the department of Surgery, Erasmus University Medical Center, Rotterdam, the Netherlands, between April 2016 and May 2018. The study was conducted under guidelines that have been approved by the Medical Ethics Committee of the Erasmus Medical Center and informed consent was obtained from all patients. Immediately after surgery, specimens were minced into small pieces of 2-3 mm^3, washed in culture medium and centrifuged for 5 minutes at 600 g. The tissue was stored overnight in culture medium at 4° C., where after the tissue was centrifuged again and the supernatant was removed. Fragments were dissociated using 10-25 ml collagenase type 1 (2 mg/ml: Sigma-Aldrich), followed by incubation at 37° C. for up to two hours. Ficoll (GE healthcare) density gradient separation was used once or twice as required in order to separate contaminating red blood cells from the tumor cells. Cell viability and cell amount were counted by trypan blue exclusion. Dissociated cells were plated at a density of 10^5 cells per well. ACTH-secreting corticotroph pituitary adenoma tissue from patients with Cushing's disease (n=2) was available after transsphenoidal surgery. Single-cell suspensions of the pituitary adenoma tissues were prepared as previously described in detail.
Owing to a limited number of cells obtained from the specimens, not all experiments were carried out in every primary culture.
(§3) Cortisol concentrations were measured in the supernatant using a chemiluminescence immunoassay system (Immulite 2000XPi; Siemens DPC Inc., Los Angeles, Calif., USA). In addition, we carried out multi-steroid analysis by liquid chromatography/mass spectrometry (LC/MS-MS) to accurately quantify androstenedione, corticosterone, cortisol, 11-deoxycortisol, DHEA, DHEAS, progesterone, 17-hydroxyprogesterone, and testosterone. Concentrations that were tested on the LC/MS-MS were closest to 50% inhibition or maximal inhibition of cortisol as determined by the immunoassay. Steroids were quantified with respect to a calibration series, with internal standards. Steroids were quantified on a Xevo TQS LC-MS/MS (Waters Chromatography).
(§4) Statistical analysis was performed using Graphpad Prism 6.0 (Graphpad Software, San Diego, CA). Non-linear regression curve fitting program was used to calculate the half maximal inhibitory concentrations (IC50) on cortisol production. Effects of both compounds on the steroid profile were measured as absolute change compared to control and compared using the Student's t-test. When assessing differences between effects of both compounds, the percentage change was evaluated and compared in order to correct for differences in the vehicle treated control cells. Values of P<0.05 were considered statistically significant and data are presented as mean SEM.

[3] = tested on: EAS associated adrenal hyperplasia no. 1 primary culture; test: Steroid profile by LC/MS-MS in EAS associated adrenal hyperplasia no. 1; type: cell-based, human; conditions: for 11-DOC absolute change vs ACTH stimulation with vehicle / 11-DOC percentage change vs ACTH stimulation with vehicle / 17-OHP absolute change vs ACTH stimulation with vehicle / 17-OHP percentage change vs ACTH stimulation with vehicle / Androstenedione absolute change vs ACTH stimulation with vehicle / Androstenedione percentage change vs ACTH stimulation with vehicle / Corticosterone absolute change vs ACTH stimulation with vehicle / Corticosterone percentage change vs ACTH stimulation with vehicle / Cortisol absolute change vs ACTH stimulation with vehicle / Cortisol percentage change vs ACTH stimulation with vehicle / DHEA absolute change vs ACTH stimulation with vehicle / DHEAS absolute change vs ACTH stimulation with vehicle / Prog absolute change vs ACTH stimulation with vehicle / Prog percentage change vs ACTH stimulation with vehicle / Testosterone absolute change vs ACTH stimulation with vehicle / Testosterone percentage change vs ACTH stimulation with vehicle: EAS associated adrenal hyperplasia no. 1, ACTH; for 11-DOC absolute change vs ACTH stimulation with vehicle / 11-DOC percentage change vs ACTH stimulation with vehicle / 17-OHP absolute change vs ACTH stimulation with vehicle / 17-OHP percentage change vs ACTH stimulation with vehicle / Androstenedione absolute change vs ACTH stimulation with vehicle / Androstenedione percentage change vs ACTH stimulation with vehicle / Corticosterone absolute change vs ACTH stimulation with vehicle / Corticosterone percentage change vs ACTH stimulation with vehicle / Cortisol absolute change vs ACTH stimulation with vehicle / Cortisol percentage change vs ACTH stimulation with vehicle / DHEA absolute change vs ACTH stimulation with vehicle / DHEAS absolute change vs ACTH stimulation with vehicle / Prog absolute change vs ACTH stimulation with vehicle / Prog percentage change vs ACTH stimulation with vehicle / Testosterone absolute change vs ACTH stimulation with vehicle / Testosterone percentage change vs ACTH stimulation with vehicle / 11-DOC absolute change vs control / 11-DOC percentage change vs control / 17-OHP absolute change vs control / 17-OHP percentage change vs control / Androstenedione absolute change vs control / Androstenedione percentage change vs control / Corticosterone absolute change vs control / Corticosterone percentage change vs control / Cortisol absolute change vs control / Cortisol percentage change vs control / DHEA absolute change vs control / DHEAS absolute change vs control / Prog absolute change vs control / Prog percentage change vs control / Testosterone absolute change vs control / Testosterone percentage change vs control: 3 days; for 11-DOC absolute change vs control / 11-DOC percentage change vs control / 17-OHP absolute change vs control / 17-OHP percentage change vs control / Androstenedione absolute change vs control / Androstenedione percentage change vs control / Corticosterone absolute change vs control / Corticosterone percentage change vs control / Cortisol absolute change vs control / Cortisol percentage change vs control / DHEA absolute change vs control / DHEAS absolute change vs control / Prog absolute change vs control / Prog percentage change vs control / Testosterone absolute change vs control / Testosterone percentage change vs control: EAS associated adrenal hyperplasia no. 1, Basal
Description: as §2
Primary culture conditions for primary cultures were similar as described in the section ‘cell culture and compounds’, but with small adjustments: ACTH was used at a concentration of 85 pM (250 pg/mL), treatment was started 3-4 days after plating of the cells and cells were incubated for 3 days, and; for pituitary primary cultures, levoketoconazole and racemic ketoconazole were only tested at a concentration of 1 μM. Owing to a limited number of cells obtained from the specimens, not all experiments were carried out in every primary culture.
as §3, §4

[4] = tested on: primary human corticotroph pituitary adenoma cultures; test: Cell amount in primary corticotroph pituitary adenoma cultures; type: cell-based; conditions: corticotroph pituitary adenoma primary culture no. 2, 1 μM, 7 days
Description: as §1
As a measure of cell number, DNA concentrations were determined using the bisbenzimide fluorescent dye (Hoechst 33258, Sigma Aldrich), as previously described.

[5] = cited from earlier work

- IC50 inhibition of cortisol production ([1]; ACTH independent hyperplasia no. 1, basal condition): Ambiguous
- IC50 ([1]; Homo sapiens, 72 h, ACTH independent hyperplasia no. 2, ACTH (85 μM) stimulated condition, read-out: IC50 inhibition of cortisol production): 1390 nM
- IC50 ([2]; ACC no. 2, basal condition): 76.3 nM
- IC50 ([2]; ACC no. 3, basal condition): 67.6 nM
Structure (SMILES): CC(=O)N1CCN(c2ccc(OCC3COC(Cn4ccnc4)(c4ccc(Cl)cc4Cl)O3)cc2)CC1 (racemic) [racemic ketoconazole, Ketoconazole]
- 11-DOC absolute change vs ACTH stimulation with vehicle ([3]; 0.05 μM): +76.63 nmol/l
- 11-DOC percentage change vs ACTH stimulation with vehicle ([3]; 0.05 μM): (+25%**)
- 17-OHP absolute change vs ACTH stimulation with vehicle ([3]; 0.05 μM): +8.133 nmol/l
- 17-OHP percentage change vs ACTH stimulation with vehicle ([3]; 0.05 μM): (+52%)
- Androstenedione absolute change vs ACTH stimulation with vehicle ([3]; 0.05 μM): -7.475 nmol/L
- Androstenedione percentage change vs ACTH stimulation with vehicle ([3]; 0.05 μM): (−39%)
- Corticosterone absolute change vs ACTH stimulation with vehicle ([3]; 0.05 μM): +105.7 nmol/l
- Corticosterone percentage change vs ACTH stimulation with vehicle ([3]; 0.05 μM): (+31%)
- Cortisol absolute change vs ACTH stimulation with vehicle ([3]; 0.05 μM): -62.25 nmol/L
- Cortisol percentage change vs ACTH stimulation with vehicle ([3]; 0.05 μM): −11%
- DHEA absolute change vs ACTH stimulation with vehicle ([3]; 0.05 μM): <LLQ
- DHEAS absolute change vs ACTH stimulation with vehicle ([3]; 0.05 μM): <LLQ
- Prog absolute change vs ACTH stimulation with vehicle ([3]; 0.05 μM): +3.425 nmol/l
- Prog percentage change vs ACTH stimulation with vehicle ([3]; 0.05 μM): +96%
- Testosterone absolute change vs ACTH stimulation with vehicle ([3]; 0.05 μM): -0.1750 nmol/L
- Testosterone percentage change vs ACTH stimulation with vehicle ([3]; 0.05 μM): (−28%)
- Cortisol percentage change vs ACTH stimulation with vehicle ([3]; 0.05 μM, listed as RK): (−11%*)
- Prog percentage change vs ACTH stimulation with vehicle ([3]; 0.05 μM, listed as RK): (+96%**)
- 11-DOC absolute change vs ACTH stimulation with vehicle ([3]; 5 μM): -402.7 nmol/L
- 11-DOC percentage change vs ACTH stimulation with vehicle ([3]; 5 μM): (−99%)
- 17-OHP absolute change vs ACTH stimulation with vehicle ([3]; 5 μM): -28.44 nmol/L
- 17-OHP percentage change vs ACTH stimulation with vehicle ([3]; 5 μM): (−90%)
- Androstenedione absolute change vs ACTH stimulation with vehicle ([3]; 5 μM): -14.79 nmol/L
- Androstenedione percentage change vs ACTH stimulation with vehicle ([3]; 5 μM): (−98%)
- Corticosterone absolute change vs ACTH stimulation with vehicle ([3]; 5 μM): -397.6 nmol/L
- Corticosterone percentage change vs ACTH stimulation with vehicle ([3]; 5 μM): (−100%)
- Cortisol absolute change vs ACTH stimulation with vehicle ([3]; 5 μM): -643.5 nmol/L
- Cortisol percentage change vs ACTH stimulation with vehicle ([3]; 5 μM): (−100%)
- DHEA absolute change vs ACTH stimulation with vehicle ([3]; 5 μM): <LLQ
- DHEAS absolute change vs ACTH stimulation with vehicle ([3]; 5 μM): <LLQ
- Prog absolute change vs ACTH stimulation with vehicle ([3]; 5 μM): +39.86 nmol/l
- Prog percentage change vs ACTH stimulation with vehicle ([3]; 5 μM): (+1292%)
- Testosterone absolute change vs ACTH stimulation with vehicle ([3]; 5 μM): -0.4350 nmol/L
- Testosterone percentage change vs ACTH stimulation with vehicle ([3]; 5 μM): (−85%)
- 11-DOC absolute change vs control ([3]; 0.05 μM): -62.23 nmol/L
- 11-DOC percentage change vs control ([3]; 0.05 μM): (−27%)
- 17-OHP absolute change vs control ([3]; 0.05 μM): +0.6833 nmol/l
- 17-OHP percentage change vs control ([3]; 0.05 μM): (+7.5%)
- Androstenedione absolute change vs control ([3]; 0.05 μM): -5.850 nmol/L
- Androstenedione percentage change vs control ([3]; 0.05 μM): (−55%)
- Corticosterone absolute change vs control ([3]; 0.05 μM): -68.60 nmol/L
- Corticosterone percentage change vs control ([3]; 0.05 μM): (−32%)
- Cortisol absolute change vs control ([3]; 0.05 μM): -86.78 nmol/L
- Cortisol percentage change vs control ([3]; 0.05 μM): (−57%)
- DHEA absolute change vs control ([3]; 0.05 μM): <LLQ
- DHEAS absolute change vs control ([3]; 0.05 μM): <LLQ
- Prog absolute change vs control ([3]; 0.05 μM): +4.475 nmol/l
- Prog percentage change vs control ([3]; 0.05 μM): (+108%)
- Testosterone absolute change vs control ([3]; 0.05 μM): -0.1500 nmol/L
- Testosterone percentage change vs control ([3]; 0.05 μM): (−32%)
- 11-DOC absolute change vs control ([3]; 5 μM): -270.7 nmol/L
- 11-DOC percentage change vs control ([3]; 5 μM): (−98%)
- 17-OHP absolute change vs control ([3]; 5 μM): -15.07 nmol/L
- 17-OHP percentage change vs control ([3]; 5 μM): (−92%)
- Androstenedione absolute change vs control ([3]; 5 μM): -8.219 nmol/L
- Androstenedione percentage change vs control ([3]; 5 μM): (−94%)
- Corticosterone absolute change vs control ([3]; 5 μM): -166.5 nmol/L
- Corticosterone percentage change vs control ([3]; 5 μM): (−98%)
- Cortisol absolute change vs control ([3]; 5 μM): -165.2 nmol/L
- Cortisol percentage change vs control ([3]; 5 μM): (−99%)
- DHEA absolute change vs control ([3]; 5 μM): <LLQ
- DHEAS absolute change vs control ([3]; 5 μM): <LLQ
- Prog absolute change vs control ([3]; 5 μM): +19.89 nmol/l
- Prog percentage change vs control ([3]; 5 μM): (+537%***)
- Testosterone absolute change vs control ([3]; 5 μM): -0.2688 nmol/L
- Testosterone percentage change vs control ([3]; 5 μM): (−66%)
- total change of steroids ([3]; EAS associated adrenal hyperplasia no. 1, basal condition): -218.5 nmol/L
- total sum of change of the steroids: increase ([3]; EAS associated adrenal hyperplasia no. 1, under ACTH stimulation): 124.0 nmol/L
- effect on cell number [4]: not observed
- accumulation in a subject's body over repeated dosing [5]: accumulate in a subject's body over repeated dosing
